This is an account of results in patent publication US12036298B2, “Skin care composition and method for treating post-acne marks” (The Procter & Gamble Company, priority 2021, dated 2024).

A short description of one data set: physchem. Format: physicochemical. Particulars: for solubility: 20 °C. From the text:
(§1) The compositions herein include one or more solubilizers and/or co-solvents to help solubilize the HCA. […] Without being limited by theory, it is believed that the decreased solubility of an HCA at lower pH is due to reduced ability of the HCA to undergo the acid dissociation that forms the conjugate base species observed at higher pH levels. At pH 7, p-coumaric acid exists at approximately 99.6% in its base form; whereas at pH 3, the conjugate base form is only present at approximately […]. As a result of its relatively poor solubility, HCAs can form crystals in an aqueous, low-pH skin care composition. The HCA crystals may impart an undesirable feel to the composition during use (e.g., a rough or grainy feel). HCA crystal formation may also lead to a decrease in the efficacy of the HCA and/or other ingredients in the composition, and/or create an undesirable consumer perception of the skin care composition or manufacturer (e.g., poor quality).
In order to avoid the formation of HCA crystals in the present low-pH compositions, the HCA should have a solubility greater than the intrinsic solubility limit of the composition. […] In this example the HCA would likely crystalize. […] See, Bevill, et al., Polymorphic Cocrystals of Nutraceutical Compound p-Coumaric Acid with Nicotinamide: Characterization, Relative Solid-State Stability, and Conversion to Alternate Stoichiometries, Cryst. Growth Des. 2014, 14, 3, 1438-1448; 2014.

The nature of data set [1]: Fraction of p-coumaric acid present as conjugate base (acid dissociation) by pH. Format: physicochemical. The settings on record: pH 3.
Source text: as §1

In brackets after ≈: the same amount, converted by molar mass.

In the data set “physchem” (pH 3.8), hydroxycinnamic acid [HCA] yielded an intrinsic solubility of 6.8 mg/mL.

As a reminder, the solubility is the concentration that dissolves in the medium under given conditions. Higher therefore signals much dissolved substance. Regarding `O=C(O)/C=C/c1ccc(O)cc1` [p-coumaric acid], the solubility in “physchem” (pH 3, aqueous buffer) is 4 mg/mL (≈ 24.4 mM); in “physchem” (pH 7, aqueous buffer) it was approximately 345 mg/mL (≈ 2100 mM). For the same molecule, in data set [1], the “conjugate base form present” value was “approximately 13.4%”.
